How the values were obtained:
COX-2 = target: T1, COX-2 (Homo sapiens, UniProt P35354); experiment: Fluorometric COX-2 inhibitor screening kit; format: biochemical; conditions: at 10 µM; mean ± standard error of two measurements; read-out: COX-2 Percent of Inhibition
T1 construct: purchased Abcam, UK
T1 sequence (P35354 18-604): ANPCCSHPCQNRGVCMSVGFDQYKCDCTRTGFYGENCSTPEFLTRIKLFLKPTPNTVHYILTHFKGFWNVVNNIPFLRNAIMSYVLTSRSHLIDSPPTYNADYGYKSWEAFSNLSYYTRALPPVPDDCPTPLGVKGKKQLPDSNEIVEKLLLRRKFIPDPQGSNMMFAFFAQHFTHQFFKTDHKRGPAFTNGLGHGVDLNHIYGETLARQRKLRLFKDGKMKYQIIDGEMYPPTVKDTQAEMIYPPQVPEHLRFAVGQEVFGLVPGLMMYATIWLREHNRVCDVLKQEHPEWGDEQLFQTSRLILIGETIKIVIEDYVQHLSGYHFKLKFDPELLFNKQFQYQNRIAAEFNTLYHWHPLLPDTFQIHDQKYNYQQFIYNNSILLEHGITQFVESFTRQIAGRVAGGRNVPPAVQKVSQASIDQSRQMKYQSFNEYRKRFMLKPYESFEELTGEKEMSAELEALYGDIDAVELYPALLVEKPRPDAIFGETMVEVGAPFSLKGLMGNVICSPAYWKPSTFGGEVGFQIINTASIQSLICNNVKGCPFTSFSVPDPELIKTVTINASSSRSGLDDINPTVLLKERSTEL
Description: (§1) COX-2 and 5-LOX inhibitory activities were tested using fluorometric COX-2 and 5-LOX inhibitor screening kits (Abcam, UK). These assays are based on the fluorometric detection of Prostaglandin G2 (a product generated by the COX enzyme) or on the fluorometric detection of intermediate generated by the 5-LOX enzyme. The experiments were conducted according to the manufacturers’ instructions.
(§2) For the determination of COX-2 inhibitory activity, tested compounds were dissolved in DMSO (5 mM stock solutions) and then diluted with the same solvent to obtain test solutions. Test solutions were further diluted 5X with COX assay buffer (2 µL of test solution and 8 µL COX assay buffer). […] Solvent control (SC) was prepared by adding 2 µL DMSO and 8 µL COX assay buffer, while sample (S) and enzyme control (EC) were prepared by adding 10 µL of diluted test solution and COX assay buffer, respectively, into assigned wells. For the determination of 5-LOX inhibitory activity, tested compounds were also dissolved in DMSO to prepare stock solutions with the same concentration (5mM), which were then diluted with the same solvent to obtain test solutions. Subsequently, test solutions were added to corresponding wells (2 µL).

5-LOX = target: T2, 5-LOX (Homo sapiens, UniProt P09917); experiment: Fluorometric 5-LOX inhibitor screening kit; format: biochemical; conditions: mean ± standard error of two measurements; for inhibition at 10 µM: read-out: 5-LOX Percent of Inhibition
T2 construct: purchased Abcam, UK
T2 sequence (P09917 1-674): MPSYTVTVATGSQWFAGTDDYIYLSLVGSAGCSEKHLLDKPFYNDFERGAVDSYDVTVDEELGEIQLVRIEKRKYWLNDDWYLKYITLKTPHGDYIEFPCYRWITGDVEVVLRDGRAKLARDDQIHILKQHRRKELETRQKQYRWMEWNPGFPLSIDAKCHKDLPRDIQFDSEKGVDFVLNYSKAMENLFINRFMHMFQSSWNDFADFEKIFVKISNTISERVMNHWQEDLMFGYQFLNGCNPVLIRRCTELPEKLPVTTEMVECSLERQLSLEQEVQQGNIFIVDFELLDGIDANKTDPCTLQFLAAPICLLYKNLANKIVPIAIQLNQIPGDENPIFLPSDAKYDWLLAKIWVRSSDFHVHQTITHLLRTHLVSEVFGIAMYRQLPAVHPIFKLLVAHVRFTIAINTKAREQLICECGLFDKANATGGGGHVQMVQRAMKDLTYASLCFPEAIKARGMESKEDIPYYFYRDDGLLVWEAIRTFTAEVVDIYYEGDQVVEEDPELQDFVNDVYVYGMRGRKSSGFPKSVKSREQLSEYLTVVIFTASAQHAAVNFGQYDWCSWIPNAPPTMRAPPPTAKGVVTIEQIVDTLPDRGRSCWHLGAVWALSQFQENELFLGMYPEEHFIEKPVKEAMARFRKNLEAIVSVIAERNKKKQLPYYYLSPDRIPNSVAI
Description: as §1, §2

[1] = tested on: carrageenan-induced rat paw edema; experiment: Carrageenan-induced rat paw edema model; format: in vivo, Wistar albino rats; conditions: for Rat paw thickness: mean ± SD; for inhibition in vivo at 2.5 mg/kg / inhibition in vivo at 5 mg/kg / inhibition in vivo at 10 mg/kg: Rattus norvegicus, po
Description: In vivo assessment of anti-inflammatory activity of compounds 1–7 was conducted in the carrageenan-induced rat paw edema model. Inflammation in all rats was induced by an intraplantar injection of […] of 0.5% carrageenan saline in the left hind paw. Two hundred male Wistar albino rats (180–210 g) were divided into seven experimental (n = 168 rats, 8 rats per subgroup) and two control groups (n = 32 rats, 8 rats per subgroup).
Experimental groups involved rats that received compounds 1–7, and they were divided into three subgroups: rats received compounds 1–7 per os in three doses (2.5 mg/kg, 5 mg/kg, and 10 mg/kg) dissolved in 1% DMSO for 60 min before inducing inflammation.
In order to quantify the anti-inflammatory effect, the thickness of the left paw tissue of each rat was measured at the following time intervals: immediately before inducing inflammation (moment 0) and 1, 2, 3, and 4 h (moments 1, 2, 3, and 4) after inflammation. Tissue thickness was measured in the middle of the rat paw using a digital vernier caliper (Aerospace, Beijing, China).

[2] = 2.5 mg/kg per os, 1 h after carrageenan
[3] = 2.5 mg/kg per os, 2 h after carrageenan
[4] = 2.5 mg/kg per os, 3 h after carrageenan
[5] = 2.5 mg/kg per os, 4 h after carrageenan
[6] = 5.0 mg/kg per os, 1 h after carrageenan
[7] = 5.0 mg/kg per os, 2 h after carrageenan
[8] = 5.0 mg/kg per os, 3 h after carrageenan
[9] = 5.0 mg/kg per os, 4 h after carrageenan
[10] = 10.0 mg/kg per os, 1 h after carrageenan
[11] = 10.0 mg/kg per os, 2 h after carrageenan
[12] = 10.0 mg/kg per os, 4 h after carrageenan
[13] = 1 h, 2.5 mg/kg per os, 1 h after carrageenan
[14] = 1 h, 5.0 mg/kg per os, 1 h after carrageenan
[15] = 1 h, 10.0 mg/kg per os, 1 h after carrageenan
[16] = 2 h, 2.5 mg/kg per os, 2 h after carrageenan
[17] = 2 h, 5.0 mg/kg per os, 2 h after carrageenan
[18] = 2 h, 10.0 mg/kg per os, 2 h after carrageenan
[19] = 3 h, 2.5 mg/kg per os, 3 h after carrageenan
[20] = 3 h, 5.0 mg/kg per os, 3 h after carrageenan
[21] = 3 h, 10.0 mg/kg per os, 3 h after carrageenan
[22] = 4 h, 2.5 mg/kg per os, 4 h after carrageenan
[23] = 4 h, 5.0 mg/kg per os, 4 h after carrageenan
[24] = 4 h, 10.0 mg/kg per os, 4 h after carrageenan
[25] = 10.0 mg/kg per os, 3 h after carrageenan

## COc1ccc2cc([C@H](C)C(=O)NC(=S)Nc3ccc(C(C)=O)cc3)ccc2c1 [Compound 5, (S)-N-((4-acetylphenyl)carbamothioyl)-2-(6-methoxynaphthalen-2-yl)propanamide]
COX-2
  inhibition at 10 µM: 19.6 ± 4.55%
5-LOX
  inhibition at 10 µM: 46.2 ± 4.87%
  IC50: 16.7 ± 1.79 µM
[1]; [2]
  Rat paw thickness: 5.73 ± 0.12 mm
[1]; [3]
  Rat paw thickness: 5.37 ± 0.25 mm
[1]; [4]
  Rat paw thickness: 5.20 ± 0.20 mm
[1]; [5]
  Rat paw thickness: 4.57 ± 0.15 mm
[1]; [6]
  Rat paw thickness: 5.05 ± 0.07 mm
[1]; [7]
  Rat paw thickness: 4.85 ± 0.07 mm
[1]; [8]
  Rat paw thickness: 4.40 ± 0.14 mm
[1]; [9]
  Rat paw thickness: 3.95 ± 0.07 mm
[1]; [10]
  Rat paw thickness: 5.5 ± 0.71 mm
[1]; [11]
  Rat paw thickness: 5.35 ± 0.64 mm
[1]; [12]
  Rat paw thickness: 4.75 ± 0.49 mm
[1]; [13]
  inhibition in vivo at 2.5 mg/kg: 10.7%
[1]; [14]
  inhibition in vivo at 5 mg/kg: 19.6%
[1]; [15]
  inhibition in vivo at 10 mg/kg: 38.1%
[1]; [16]
  inhibition in vivo at 2.5 mg/kg: 17.2%
[1]; [17]
  inhibition in vivo at 5 mg/kg: 19.5%
[1]; [18]
  inhibition in vivo at 10 mg/kg: 37.9%
[1]; [19]
  inhibition in vivo at 2.5 mg/kg: 10.5%
[1]; [20]
  inhibition in vivo at 5 mg/kg: 28.8%
[1]; [21]
  inhibition in vivo at 10 mg/kg: 39.7%
[1]; [22]
  inhibition in vivo at 2.5 mg/kg: 31%
[1]; [23]
  inhibition in vivo at 5 mg/kg: 41.4%
[1]; [24]
  inhibition in vivo at 10 mg/kg: 47 to 54%

## CCOC(=O)C(Cc1ccccc1)NC(=S)NC(=O)C(C)c1ccc2cc(OC)ccc2c1 [Compound 6, Ethyl(((S)-2-(6-methoxynaphthalen-2-yl)propanoyl)carbamothioyl)-L-phenylalaninate]
COX-2
  inhibition at 10 µM: 24 ± 5.36%
5-LOX
  inhibition at 10 µM: 23.6 ± 2.14%
[1]; [2]
  Rat paw thickness: 6.17 ± 0.31 mm
[1]; [3]
  Rat paw thickness: 5.87 ± 0.23 mm
[1]; [4]
  Rat paw thickness: 5.37 ± 0.55 mm
[1]; [5]
  Rat paw thickness: 4.93 ± 0.21 mm
[1]; [6]
  Rat paw thickness: 6.47 ± 0.57 mm
[1]; [7]
  Rat paw thickness: 6.17 ± 0.06 mm
[1]; [8]
  Rat paw thickness: 5.77 ± 0.06 mm
[1]; [9]
  Rat paw thickness: 5.27 ± 0.21 mm
[1]; [10]
  Rat paw thickness: 6.20 ± 0.20 mm
[1]; [11]
  Rat paw thickness: 6.17 ± 0.23 mm
[1]; [25]
  Rat paw thickness: 5.27 ± 0.72 mm
[1]; [12]
  Rat paw thickness: 5.03 ± 0.76 mm
[1]; [13]
  inhibition in vivo at 2.5 mg/kg: 11.8%
[1]; [14]
  inhibition in vivo at 5 mg/kg: 17.5%
[1]; [15]
  inhibition in vivo at 10 mg/kg: 21.6%
[1]; [16]
  inhibition in vivo at 2.5 mg/kg: 15.7%
[1]; [17]
  inhibition in vivo at 5 mg/kg: 21.8%
[1]; [18]
  inhibition in vivo at 10 mg/kg: 14.2%
[1]; [19]
  inhibition in vivo at 2.5 mg/kg: 26.9%
[1]; [20]
  inhibition in vivo at 5 mg/kg: 28.8%
[1]; [21]
  inhibition in vivo at 10 mg/kg: 47.1%
[1]; [22]
  inhibition in vivo at 2.5 mg/kg: 37.9%
[1]; [23]
  inhibition in vivo at 5 mg/kg: 44.7%
[1]; [24]
  inhibition in vivo at 10 mg/kg: 49.4%

## COC(=O)[C@H](Cc1cn(C)c2ccccc12)NC(=S)NC(=O)[C@@H](C)c1ccc2cc(OC)ccc2c1 [Compound 7, Methyl-N^α-(((S)-2-(6-methoxynaphthalen-2-yl)propanoyl)carbamothioyl)-1-methyltryptophanate]
COX-2
  inhibition at 10 µM: 24.2 ± 5.77%
5-LOX
  inhibition at 10 µM: 20.7 ± 4.19%
[1]; [2]
  Rat paw thickness: 7.03 ± 0.15 mm
[1]; [3]
  Rat paw thickness: 6.47 ± 0.21 mm
[1]; [4]
  Rat paw thickness: 6.10 ± 0.20 mm
[1]; [5]
  Rat paw thickness: 5.87 ± 0.21 mm
[1]; [6]
  Rat paw thickness: 7.10 ± 0.17 mm
[1]; [7]
  Rat paw thickness: 6.80 ± 0.20 mm
[1]; [8]
  Rat paw thickness: 6.43 ± 0.32 mm
[1]; [9]
  Rat paw thickness: 6.03 ± 0.61 mm
[1]; [10]
  Rat paw thickness: 6.87 ± 0.25 mm
[1]; [11]
  Rat paw thickness: 6.50 ± 0.36 mm
[1]; [25]
  Rat paw thickness: 6.03 ± 0.21 mm
[1]; [12]
  Rat paw thickness: 5.47 ± 0.38 mm
[1]; [13]
  inhibition in vivo at 2.5 mg/kg: 21.6%
[1]; [14]
  inhibition in vivo at 5 mg/kg: 24.4%
[1]; [15]
  inhibition in vivo at 10 mg/kg: 14.8%
[1]; [16]
  inhibition in vivo at 2.5 mg/kg: 38.7%
[1]; [17]
  inhibition in vivo at 5 mg/kg: 29.5%
[1]; [18]
  inhibition in vivo at 10 mg/kg: 21.8%
[1]; [19]
  inhibition in vivo at 2.5 mg/kg: 47%
[1]; [20]
  inhibition in vivo at 5 mg/kg: 36.1%
[1]; [21]
  inhibition in vivo at 10 mg/kg: 32.4%
[1]; [22]
  inhibition in vivo at 2.5 mg/kg: 49.4%
[1]; [23]
  inhibition in vivo at 5 mg/kg: 47.1%
[1]; [24]
  inhibition in vivo at 10 mg/kg: 54.1%
